Measured values: paper PMC10674780, “In Vitro and In Vivo Effects of Synthesis Novel Phenoxyacetamide Derivatives as Potent Apoptotic Inducer against HepG2 Cells through PARP-1 Inhibition” (Pharmaceuticals, 2023)

Target: T1, PARP-1 (Homo sapiens, UniProt P09874)
T1 construct: gene PARP1
Assay: PARP-1 inhibition assay kit (Cat No. […])
Format: biochemical

T1 sequence (P09874 2-1014): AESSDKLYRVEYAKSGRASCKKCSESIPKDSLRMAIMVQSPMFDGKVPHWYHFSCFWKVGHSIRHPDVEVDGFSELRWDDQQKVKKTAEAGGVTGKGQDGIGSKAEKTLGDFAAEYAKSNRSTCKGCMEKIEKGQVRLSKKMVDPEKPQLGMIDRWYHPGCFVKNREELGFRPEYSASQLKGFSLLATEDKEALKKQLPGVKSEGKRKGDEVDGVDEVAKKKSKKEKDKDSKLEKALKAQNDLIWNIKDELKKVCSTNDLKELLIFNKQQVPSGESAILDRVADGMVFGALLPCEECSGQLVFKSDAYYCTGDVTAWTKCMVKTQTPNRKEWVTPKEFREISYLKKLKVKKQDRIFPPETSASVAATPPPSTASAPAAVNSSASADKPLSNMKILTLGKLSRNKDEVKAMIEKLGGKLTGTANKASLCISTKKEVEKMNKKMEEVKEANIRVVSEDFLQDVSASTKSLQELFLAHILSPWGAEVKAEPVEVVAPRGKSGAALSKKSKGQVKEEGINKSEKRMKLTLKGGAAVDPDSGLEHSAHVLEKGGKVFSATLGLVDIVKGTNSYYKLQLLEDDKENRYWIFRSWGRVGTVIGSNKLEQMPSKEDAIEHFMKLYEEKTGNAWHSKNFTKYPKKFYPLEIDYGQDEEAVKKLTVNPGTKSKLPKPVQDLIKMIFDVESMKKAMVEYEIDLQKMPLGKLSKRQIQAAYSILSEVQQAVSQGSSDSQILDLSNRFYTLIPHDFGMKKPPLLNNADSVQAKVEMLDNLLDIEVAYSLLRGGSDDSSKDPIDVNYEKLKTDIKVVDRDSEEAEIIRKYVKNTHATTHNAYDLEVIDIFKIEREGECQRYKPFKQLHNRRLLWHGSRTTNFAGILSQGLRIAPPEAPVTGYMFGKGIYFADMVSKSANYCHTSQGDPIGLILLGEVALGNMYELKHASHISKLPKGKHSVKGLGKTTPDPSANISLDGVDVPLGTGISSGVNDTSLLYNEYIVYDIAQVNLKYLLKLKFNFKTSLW

SMILES: NNC(=O)CNC(=O)COc1cc(Cl)c(Cl)cc1Cl [I, N-(2-hydrazineyl-2-oxoethyl)-2-(2.4.5-trichlorophenoxy) acetamide]
- IC50: 1.52 nM
